Reference: patent US12138293B2 (priority 2020, dated 2024)
Several values for one entry are separate records, joined by “and”; a condition that tells them apart may be missing. Identical values can stand only once. Like-named read-outs stand apart in the source and are kept apart here. Residues, ends and D or L forms follow the SMILES beside them.

Experiments:
[1] = test system: transepithelial PTK injury of rabbit corneas; set-up: species or system rabbits; conditions: in vivo
[2] = test system: heptanol-induced corneal erosion (chemical burn injury) in rabbit eyes; conditions: in vivo
[3] = test system: nitrogen mustard (NM)-exposed cornea; set-up: species or system New Zealand white rabbits; conditions: rabbit, in vivo
in vivo = conditions: rabbit
[4] = rabbit, in vivo
[5] = test system: eye of Dutch Belted rabbits; conditions: rabbit, in vivo
[6] = rabbit, in vivo; remark: listed apart in the source
[7] = assay type: physicochemical

CC[C@H](C)[C@H](NC(=O)[C@H](CCC(=O)O)NC(=O)[C@H](CC(C)C)NC(=O)[C@H](CC(=O)O)NC(=O)[C@H](CC(=O)O)NC(=O)[C@@H]1CCCN1C(=O)[C@H](CCCNC(=N)N)NC(=O)[C@@H]1CCCN1C(=O)[C@H](CCCNC(=N)N)NC(=O)[C@H](CCCCN)NC(=O)[C@H](CCCCN)NC(=O)[C@H](Cc1c[nH]c2ccccc12)NC(=O)[C@@H]1CCCN1C(=O)[C@H](CCCCN)NC(=O)[C@H](CCCNC(=N)N)NC(=O)[C@H](CCCNC(=N)N)NC(=O)[C@H](CC(N)=O)NC(=O)[C@@H]1CCCN1C(=O)[C@H](Cc1ccccc1)NC(=O)[C@H](Cc1c[nH]c2ccccc12)NC(=O)[C@@H](NC(=O)[C@H](CCCCN)NC(=O)[C@@H]1CCCN1C(=O)[C@H](CCC(N)=O)NC(=O)[C@H](CCCNC(=N)N)NC(=O)CCCCCNC(=O)CCCC[C@@H]1SC[C@@H]2NC(=O)N[C@@H]21)[C@@H](C)CC)C(=O)O [aCT1, RQPKIWFPNRRKPWKK RPRPDDLEI] (HELM PEPTIDE1{[O=C1N[C@H]2[C@H](CS[C@H]2CCCCC(=O)[*:2])N1].[O=C(CCCCCN[*:1])[*:2]].R.Q.P.K.I.W.F.P.N.R.R.K.P.W.K.K.R.P.R.P.D.D.L.E.I}$$$$V2.0; N-terminus and C-terminus assumed)
Corneal healing (fluorescein staining) [1]: accelerated corneal healing | Corneal healing measured by central corneal thickness [2]: accelerated corneal healing | Corneal healing measured by fluorescein staining [2]: accelerated corneal healing | Corneal edema (corneal thickness) [3]: limited corneal edema damage | Corneal fibroblasts/keratocytes [3]: protection of corneal fibroblasts/keratocytes | Expression of COX-2 [3]: reduced | Formation of new blood vessels in the corneal stroma [3]: limited the formation of new blood vessels | Inflammatory cell infiltration in the corneal stroma (H&E) [3]: significantly decreases inflammatory cell infiltration | MMP-9 expression in the stroma [3]: reduction in MMP-9 expression | VEGF expression [3]: decreased | Tmax (in vivo; both): 15 min | tissue level at time at 0.25 h (in vivo; both, topical or ocular, 0.1 umol/eye/dose, Retinal tissue concentration): 1.91 to 24.2 ng/g | tissue level at time at 0.25 h (in vivo; female, topical or ocular, 0.1 umol/eye/dose, Cornea mean level): 181 ± 50 ng/g | tissue level at time at 0.25 h (in vivo; female, topical or ocular, 0.1 umol/eye/dose, Palpebral conjunctiva highest mean concentration): 2730 ± 697 ng/g | level at 0.25 h (in vivo; male, topical or ocular, 0.1 umol/eye/dose): 3.26 ± 5.28 ng/mL | tissue level at time at 0.25 h (in vivo; male, topical or ocular, 0.1 umol/eye/dose, Aqueous humor mean level): 115 ± 76.3 ng/g | tissue level at time at 0.25 h (in vivo; male, topical or ocular, 0.1 umol/eye/dose, Palpebral conjunctiva highest mean concentration): 939 ± 228 ng/g | Maximum tolerated dose (MTD) [4]: no maximum tolerated dose (MTD) was identified | Microscopic findings in the eye tissues [4]: no microscopic findings | No observed adverse effect level (NOAEL) [4]: 1.0 μmol/eye | Tolerability (cage-side or clinical observations, body weight, clinical pathology, organ weight, necropsy) [4]: well-tolerated and did not result in any adverse findings | Contact of saline formulation with the ocular surface [5]: did not remain in contact with the ocular surface for a period of time sufficient | Vitreous humor levels [6]: quantifiable levels | Whole blood concentration, all other samples [6]: below the lower limit of quantitation (LLOQ) | Loss of Purity ([7]; pH 6.5): 0.67% and 0.24% and 0.03% and 0.76% and 1.05% | Loss of Purity (%) ([7]; pH 6.5): 0.44% and 0.39% and 0.30% and 0.19% and 0.06% | Loss of Purity (%) ([7]; pH 7): 0.33% | Loss of Purity (%) ([7]; pH 7.5): 0.50%
